{"source": "patent US20040157809A1", "about": "“Composition comprising an androgen receptor blocker and an insulin sensitizing agent and use thereof for treatment of polycystic ovary syndrome” (priority 2001, published 2004)", "key": {"[1]": {"tested_on": "women with ovarian hyperandrogenism", "assay": "Example 1: ovulation assessment by weekly serum progesterone", "type": "in vivo, human", "details": "after 9 months; weekly serum progesterone measurements", "source_text": "Prior to start of treatment, ovulatory function was documented twice (months −3 and −1) by measuring serum progesterone concentrations in 4 consecutive samples obtained with an interval of 1 week. […] The ovulation results before start of treatment are the average of the results obtained during month -3 and -1, whereas the 3 months results are the mean of those obtained after 2 and 4 months on treatment."}, "[2]": {"tested_on": "women with ovarian hyperandrogenism", "assay": "Example 1: tolerability and safety variables (blood count, liver-kidney function)", "type": "in vivo, human", "details": "flutamide 250 mg/day", "source_text": "After 6 months on either monotherapy or combined therapy, fasting glucose and insulin were reassessed together with serum LH (luteinizing hormone), FSH (Follicle stimulating hormone), estradiol, testosterone, androstenedione, DHEAS, SHBG, and lipid profile. Blood count and liver-kidney function were also screened after 1, 3, and 6 months, as additional safety variables."}}}
{"smiles": "CC(C)C(=O)Nc1ccc([N+](=O)[O-])c(C(F)(F)F)c1", "note": "[Flutamide, 2-methyl-N-[4-nitro-3(trifluoromethyl)phenyl] popanamide]", "values": [{"measurement": "monthly fraction of ovulatory cycles", "setting": "[1]", "result": 20, "unit": "%"}, {"measurement": "women complaining of dry skin", "setting": "[2]", "result": "1 of 10"}]}
